Test results from patent EP4740948A1 (Dong Wha Pharm. Co., Ltd., priority 2023, dated 2025).

How the values were obtained:
[1] = tested on: MKN-45 cells; assay: Cancer cell proliferation inhibition (Cell Counting Kit-8), gastric cancer cell line; assay type: cell-based; conditions: Homo sapiens, MKN-45, 264 h, 1000 nM, cultured seven to 11 days; read-out: % inhibition rate MKN -45
Procedure, shortened: (§1)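 Single 1000 nM dose of test substance, applied to cells seeded at 100–1,000 per well in 10% FBS medium, then culture for seven to 11 days. CCK-8 read-out; inhibition rate expressed as percent relative to untreated control.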

[2] = tested on: Lovo cells; assay: Cancer cell proliferation inhibition (Cell Counting Kit-8), colorectal cancer cell line; assay type: cell-based; conditions: Homo sapiens, LoVo, 264 h, 1000 nM, cultured seven to 11 days; read-out: % inhibition rate LoVo
Procedure, shortened: (§2)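 CCK-8 readout after 7–11 day culture with 1000 nM compound; seeding 100–1,000 cells/well in 10% FBS medium (RPMI1640, McCoy's 5a, L-15 or DMEM). % inhibition vs untreated control.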

[3] = tested on: G401 cells; assay: Cancer cell proliferation inhibition (Cell Counting Kit-8), rhabdoid tumor cell line; assay type: cell-based; conditions: 1000 nM, cultured seven to 11 days; for inhibition at 1 µM: Homo sapiens, G-401, 264 h, read-out: % inhibition rate G401
Procedure, shortened: as §1

[4] = tested on: NCI-H1299 cells; assay: Cancer cell proliferation inhibition (Cell Counting Kit-8), lung cancer cell line; assay type: cell-based; conditions: Homo sapiens, NCI-H1299, 264 h, 1000 nM, cultured seven to 11 days; read-out: % inhibition rate NCI-H129 9
Procedure, shortened: as §2

[5] = tested on: SW-13 cells; assay: Cancer cell proliferation inhibition (Cell Counting Kit-8), adrenal cancer cell line; assay type: cell-based; conditions: Homo sapiens, SW13, 264 h, 1000 nM, cultured seven to 11 days; read-out: % inhibition rate SW-13
Procedure, shortened: as §2

[6] = tested on: MIA-PaCa-2 cells; assay: Cancer cell proliferation inhibition (Cell Counting Kit-8), pancreatic cancer cell line; assay type: cell-based; conditions: Homo sapiens, MIA PaCa-2, 264 h, 1000 nM, cultured seven to 11 days; read-out: % inhibition rate MIA-Paca2
Procedure, shortened: as §2

[7] = molecular target: EZH2 (Homo sapiens, UniProt Q15910); assay: AlphaLISA enzyme activity inhibition, EZH2; assay type: biochemical; conditions: for inhibition at 0.005 µM: 5nM test substance
Procedure, shortened: (§3)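 Enzyme inhibition rate was calculated relative to DMSO from AlphaLISA signal, with acceptor beads added after a 2 h methylation reaction and donor beads 1 h later. Each enzyme, EZH1 or EZH2, was pre-mixed with compound (final 5 nM or 10 nM) in Tris buffer pH 8.0 before histone H3 peptide and SAM initiated the reaction.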

[8] = molecular target: EZH1 (Homo sapiens, UniProt Q92800); assay: AlphaLISA enzyme activity inhibition, EZH1; assay type: biochemical; conditions: for inhibition at 0.005 µM: 5nM test substance
Procedure, shortened: as §3

EZH2, sequence (Q15910 whole entry, species assumed): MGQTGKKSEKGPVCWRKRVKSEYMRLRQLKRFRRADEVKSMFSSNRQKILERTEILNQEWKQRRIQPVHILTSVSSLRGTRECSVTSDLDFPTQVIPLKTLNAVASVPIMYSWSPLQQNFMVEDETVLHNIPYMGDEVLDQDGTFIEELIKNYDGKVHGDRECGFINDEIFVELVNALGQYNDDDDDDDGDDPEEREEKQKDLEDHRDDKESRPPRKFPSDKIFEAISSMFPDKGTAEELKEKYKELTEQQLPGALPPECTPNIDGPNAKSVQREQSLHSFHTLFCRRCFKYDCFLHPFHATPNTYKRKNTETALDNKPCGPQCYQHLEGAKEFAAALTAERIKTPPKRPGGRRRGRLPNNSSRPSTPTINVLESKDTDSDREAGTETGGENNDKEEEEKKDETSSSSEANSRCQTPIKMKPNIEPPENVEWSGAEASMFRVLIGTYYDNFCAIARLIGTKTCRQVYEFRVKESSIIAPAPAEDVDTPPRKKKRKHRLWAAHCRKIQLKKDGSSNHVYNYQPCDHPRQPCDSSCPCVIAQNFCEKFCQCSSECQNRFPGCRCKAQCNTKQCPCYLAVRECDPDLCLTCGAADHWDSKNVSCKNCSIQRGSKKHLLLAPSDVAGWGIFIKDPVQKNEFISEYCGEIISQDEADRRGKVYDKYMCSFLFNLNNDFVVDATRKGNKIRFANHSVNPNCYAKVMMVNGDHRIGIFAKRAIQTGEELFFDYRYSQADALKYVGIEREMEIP
EZH2, sequence (O75530 whole entry partner, species assumed): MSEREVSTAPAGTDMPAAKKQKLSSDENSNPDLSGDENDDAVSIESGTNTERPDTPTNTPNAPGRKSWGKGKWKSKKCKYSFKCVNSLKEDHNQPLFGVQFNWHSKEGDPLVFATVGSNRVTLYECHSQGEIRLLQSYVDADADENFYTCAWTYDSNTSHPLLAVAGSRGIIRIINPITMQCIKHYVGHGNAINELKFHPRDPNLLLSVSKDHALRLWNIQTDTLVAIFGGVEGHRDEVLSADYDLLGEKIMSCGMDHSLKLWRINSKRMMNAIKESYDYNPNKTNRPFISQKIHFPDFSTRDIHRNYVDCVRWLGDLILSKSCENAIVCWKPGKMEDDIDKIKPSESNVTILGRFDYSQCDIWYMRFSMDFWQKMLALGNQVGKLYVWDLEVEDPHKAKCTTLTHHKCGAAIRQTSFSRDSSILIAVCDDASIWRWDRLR
EZH2, sequence (Q15022 whole entry partner, species assumed): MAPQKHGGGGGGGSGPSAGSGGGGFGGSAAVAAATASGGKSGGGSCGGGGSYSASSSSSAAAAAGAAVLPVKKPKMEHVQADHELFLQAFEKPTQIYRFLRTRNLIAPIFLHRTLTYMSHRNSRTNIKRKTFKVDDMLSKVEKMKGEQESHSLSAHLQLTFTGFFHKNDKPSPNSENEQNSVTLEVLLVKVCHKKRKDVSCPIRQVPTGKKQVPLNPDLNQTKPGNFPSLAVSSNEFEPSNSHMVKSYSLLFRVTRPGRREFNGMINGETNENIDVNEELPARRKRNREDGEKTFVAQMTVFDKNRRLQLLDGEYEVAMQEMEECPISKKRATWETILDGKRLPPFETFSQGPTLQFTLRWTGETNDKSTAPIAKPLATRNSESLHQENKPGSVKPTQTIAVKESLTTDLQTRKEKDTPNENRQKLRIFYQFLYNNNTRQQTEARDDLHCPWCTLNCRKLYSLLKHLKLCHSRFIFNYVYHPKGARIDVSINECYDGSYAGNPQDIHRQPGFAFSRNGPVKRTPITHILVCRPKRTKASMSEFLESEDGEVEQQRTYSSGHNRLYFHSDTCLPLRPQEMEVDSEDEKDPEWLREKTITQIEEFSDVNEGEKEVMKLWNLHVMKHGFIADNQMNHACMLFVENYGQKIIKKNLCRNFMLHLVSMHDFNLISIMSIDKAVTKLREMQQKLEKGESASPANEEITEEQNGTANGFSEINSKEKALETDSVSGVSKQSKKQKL
EZH1, sequence (Q92800 whole entry, species assumed): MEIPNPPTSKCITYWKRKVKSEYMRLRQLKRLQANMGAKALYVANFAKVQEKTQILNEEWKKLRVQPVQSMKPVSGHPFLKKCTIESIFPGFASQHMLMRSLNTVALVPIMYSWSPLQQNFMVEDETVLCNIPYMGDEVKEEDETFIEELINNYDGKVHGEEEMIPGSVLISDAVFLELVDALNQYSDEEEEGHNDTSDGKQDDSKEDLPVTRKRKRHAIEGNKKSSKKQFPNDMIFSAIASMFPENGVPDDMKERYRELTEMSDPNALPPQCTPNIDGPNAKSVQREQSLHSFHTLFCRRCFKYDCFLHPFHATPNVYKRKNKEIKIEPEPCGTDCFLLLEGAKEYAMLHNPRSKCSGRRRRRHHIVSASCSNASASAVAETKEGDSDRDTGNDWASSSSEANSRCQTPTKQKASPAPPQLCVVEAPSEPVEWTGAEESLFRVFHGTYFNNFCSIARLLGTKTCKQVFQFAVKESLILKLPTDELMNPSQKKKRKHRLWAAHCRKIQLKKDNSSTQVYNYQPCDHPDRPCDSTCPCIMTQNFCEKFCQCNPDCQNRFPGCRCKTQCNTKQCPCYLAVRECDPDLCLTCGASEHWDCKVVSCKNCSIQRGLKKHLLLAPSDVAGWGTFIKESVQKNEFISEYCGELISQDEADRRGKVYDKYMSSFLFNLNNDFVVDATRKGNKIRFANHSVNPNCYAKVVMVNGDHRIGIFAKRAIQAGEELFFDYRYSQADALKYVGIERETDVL
EZH1, sequence (O75530 whole entry partner, species assumed): as the sequence (O75530 whole entry partner, species assumed) above
EZH1, sequence (Q15022 whole entry partner, species assumed): as the sequence (Q15022 whole entry partner, species assumed) above

Row | SMILES | inhibition at 1 µM [1] | inhibition at 1 µM [2] | inhibition at 1 µM [3] | inhibition at 1 µM [4] | inhibition at 1 µM [5] | inhibition at 1 µM [6] | inhibition at 0.005 µM [7] | inhibition at 0.005 µM [8] | % inhibition rate G401 ([3]; 1 µM) | inhibition at 0.01 µM ([7]; 10nM test substance) | inhibition at 0.01 µM ([8]; 10nM test substance)
1 | CSc1cc(C)[nH]c(=O)c1CNC(=O)c1cc(-c2ccc(N3CCOCC3)cc2)c2c(c1C)OC(C)([C@H]1CC[C@H](N(C)C)CC1)O2 (relative stereo) [Compound 9, 2-(trans-4-(dimethylamino)cyclohexyl)-2,4-dimethyl-N-((6-methyl-4-(methylthio)-2-oxo-1,2-dihydropyridin-3-yl)methyl)-7-(4-morpholinophenyl)benzo[d][1,3]dioxole-5-carboxamide] | ≤ 30% | 30 to 70% | 30 to 70% | ≤ 30% | 30 to 70% | ≤ 30% | 98.6% | 86.1% | – | – | –
2 | CSc1cc(C)[nH]c(=O)c1CNC(=O)c1cc(-c2ccc3c(ccn3C)c2)c2c(c1C)OC(C)([C@H]1CC[C@H](N(C)C)CC1)O2 (relative stereo) [Compound 7, 2-(trans-4-(dimethylamino)cyclohexyl)-2,4-dimethyl-7-(1-methyl-1H-indol-5-yl)-N-((6-methyl-4-(methylthio)-2-oxo-1,2-dihydropyridin-3-yl)methyl)benzo[d][1,3]dioxole-5-carboxamide] | 30 to 70% | 30 to 70% | 30 to 70% | ≤ 30% | 30 to 70% | ≤ 30% | 96% | 81.4% | – | – | –
3 | CSc1cc(C)[nH]c(=O)c1CNC(=O)c1cc(-c2cnc(N3C[C@@H](C)O[C@@H](C)C3)nc2)c2c(c1C)OC(C)(C1CCN(CC(F)(F)F)CC1)O2 (stereo partly drawn) [Compound 38, 7-(2-((2S,6R)-2,6-dimethylmorpholino)pyrimidin-5-yl)-2,4-dimethyl-N-((6-methyl-4-(methylthio)-2-oxo-1,2-dihydropyridin-3-yl)methyl)-2-(1-(2,2,2-trifluoroethyl)piperidin-4-yl)benzo[d][1,3]dioxole-5-carboxamide] | 30 to 70% | ≥ 70% | ≥ 70% | 30 to 70% | ≤ 30% | ≤ 30% | 57.4% | 40.6% | – | – | –
4 | CSc1cc(C)[nH]c(=O)c1CNC(=O)c1cc(-c2ccc(N3C[C@@H](C)O[C@@H](C)C3)nc2)c2c(c1C)OC(C)([C@H]1CC[C@H](N(C)CC(F)(F)F)CC1)O2 (stereo partly drawn) [Compound 20, 7-(6-((2S,6R)-2,6-dimethylmorpholino)pyridin-3-yl)-2,4-dimethyl-2-(trans-4-(methyl(2,2,2-trifluoroethyl)amino)cyclohexyl)-N-((6-methyl-4-(methylthio)-2-oxo-1,2-dihydropyridin-3-yl)methyl)benzo[d][1,3]dioxole-5-carboxamide] | 30 to 70% | ≥ 70% | 30 to 70% | ≤ 30% | ≤ 30% | ≤ 30% | 26.1% | 34.3% | – | – | –
5 | CSc1cc(C)[nH]c(=O)c1CNC(=O)c1cc(-c2ccc(N3C[C@@H](C)O[C@@H](C)C3)nc2)c2c(c1C)OC(C)(C1CCN(C(=O)C(F)(F)F)CC1)O2 (single isomer, unassigned) [Compound 59] | 30 to 70% | ≥ 70% | – | 30 to 70% | 30 to 70% | ≤ 30% | 98.5% | 42.2% | +++ (+++: ≥70%) | 99.5% | 5.7%
